One assay relates to A375 cell line. The assay can be described thus: Cytotoxicity, cell count method. It is filed as cell-based. Conditions: Homo sapiens, A-375, A375, 72 hours of incubation. The protocol:
(§1) The anti-tumor activity of the compounds of the present invention was evaluated as the effect on the proliferation and survival of tumor cells by counting the number of living cells in presence or absence of the compounds ("cell count method"), and as the effect on the viability and metabolic activity of the cells, by using particular substrates that are converted by cellular enzymes into coloured or luminescent products, proportionally with metabolic activity and state of the cell, such as the MTS tetrazolium compound ("MTS method") or luciferin ("ATP-based method") respectively.
(§2) Cells were seeded at 3 to 5 x 10^4 cells/well density depending on cell lines and maintained at 37°C in 5% CO2. After 24 hours cells were treated with ascending concentrations of the investigational compounds and the reference (5-fluoro-Uracyl) in a range from 0 to 100 µM. Compounds were dissolved in DMSO which final concentration in each well was 0.5% v:v. After 72 h of incubation with compounds, the cells were detached with trypsin and re-suspended in 1 ml of complete medium; the cell number was evaluated using a Z2 Coulter Counter ("cell count method") (Attallah and Johnson, A simple highly sensitive methods for the determination of cell viability using an electronic particle analyzer, Coulter counter J. Immunol. Methods. 1981, 41, 155; Leonardi et al., Activated kinase screening identifies the IKBKE oncogene as a positive regulator of autophagy. Autophagy, 2019, 15, 312). Alternatively, after the 72 hours of incubation with compounds, the MTS solution (CellTiter 96® AQueous One Solution Cell Proliferation Assay) is added to each well and absorbance at 490 nm wavelength is read after 2 hours of incubation ("MTS method"). Results in Tables 8-13, 17, 18 were obtained with the cell count method. Results in Tables 14-15 were obtained with the MTS method. Results in Table 16 were obtained with ATP-based method.

The subject of a further assay is A549 Red-FLuc. The assay can be described thus: Cytotoxicity, cell count method. It is filed as cell-based. Conditions: Homo sapiens, 72 hours of incubation. The protocol: as §1, §2
The test system of another assay is CALU1. The experiment in a line: Cytotoxicity, cell count method. It counts as cell-based. Conditions: Homo sapiens, Calu-1, CALU1, 72 hours of incubation. The procedure:
as §1, §2

The next assay has as its system DU145 cell line. The assay can be described thus: Cytotoxicity, cell count method. It is filed as cell-based. Conditions: Homo sapiens, DU-145, DU145, 72 hours of incubation. The procedure:
as §1, §2

Another assay deals with HUH7 cell line. The assay can be described thus: Cytotoxicity, cell count method. It counts as cell-based. Conditions: Homo sapiens, Huh-7, HUH7, 72 hours of incubation. The protocol: as §1, §2
The test system of another assay is PANC-1 cell line. The experiment in a line: Cytotoxicity, cell count method. It is filed as cell-based. Conditions: Homo sapiens, PANC-1, 72 hours of incubation. The procedure: as §1, §2
In a further assay the test system is U87. The assay can be described thus: Cytotoxicity, cell count method. It counts as cell-based. Conditions: Homo sapiens, U-87 MG, U87, 72 hours of incubation. The procedure: as §1, §2
In another assay the target is T1, CYP1A2 (Homo sapiens, UniProt P05177).
T1 construct: 158 µl of Human Liver Microsome working stock solution; from tissue; host or cells: human liver microsomes
The experiment in a line: Cytochrome P450 inhibition. It counts as in vitro ADME. Conditions: 1A2, Human Liver Microsome. The procedure: (§3) Ready to use PBS, 9.07-10.00 g, (Sigma Aldrich, catalogue code P3813) was dissolved in […] MilliQ water and pH was adjusted to 7.4.
(§4) Substrate pool was done pooling 14 µl of Phenacitin 10 mM (CYP1A2 substrate, Sigma Aldrich, catalogue number 7740), 14 µl Diclofenac 10 mM (CYP2C9 substrate, Sigma Aldrich, catalogue number D6899), 14 µl Dextromethorphan 10 mM (CYP2D6 substrate, Sigma Aldrich, catalogue number D9684), 20.28 µl Midazolam 2.76 mM (CYP3A4 substrate, Sigma Aldrich, catalogue number UC430) and 14 µl Bupropion HCl 10 mM (CYP2B6 substrate, Sigma Aldrich, catalogue number B102), and diluted to 2800 µl with PBS buffer pH 7.4.
(§5) Inhibitors of the cytochromes tested were the following: Alpha-naphthoflavone (CYP1A2, Sigma Aldrich, catalogue number N5757); Sulfaphenazole (CYP2C9, Sigma Aldrich, catalogue number S0758); Ticlopidine (CYP2B6, Sigma Aldrich, catalogue number T6654); Quinidine (CYP2D6, Sigma Aldrich, catalogue number Q3625); Ketoconazole (CYP3A4, Sigma Aldrich, catalogue number K1003).
(§6) 158 µl of Human Liver Microsome working stock solution in PBS buffer pH7.4 was added to reaction plate (0.253 mg/ml, 158 µl/well).
(§7) Test compounds and inhibitors were prepared in DMSO and diluted with buffer to prepare working solution with the final concentration of 3000, 999, 333, 111, 37 and 12 µM. 2 µl of working solution of the test compounds or inhibitors listed above were added to reaction plate (2 µl/ well). For control, 2 µl of Acetonitrile containing DMSO (without inhibitor) was added to reaction plate. 20 µl of substrate pool was added to all the wells of the reaction plate. The samples were mixed using the vortex and pre-incubated at 37°C for 5 min.
(§8) The NADPH solution 10 mM in PBS buffer pH 7.4 was pre-warmed at 37°C for 5 min. 20 µl of pre-warmed NADPH solution was added to the reaction plate and then incubated at 37°C for 10 min.
(§9) The reaction was terminated by adding cold ACN (200 µl/well) to the reaction mixture and centrifuged at 4,000 rpm for 20 minutes.
(§10) After centrifugation, 200 µl of supernatant was submitted for LC-MS/MS analysis. Mobile phases include 0.1% formic acid in water and methanol:acetonitrile, 50% (v/v).
(§11) Column is Phenomenex kinetic C18, 50 x 4.6 mm, […]. IC50 values were calculated using Graphpad Prism (version 4.03).

A further assay has as its target T2, CYP2B6 (Homo sapiens, UniProt P20813).
T2 construct: 158 µl of Human Liver Microsome working stock solution; from tissue; host or cells: human liver microsomes
The assay can be described thus: Cytochrome P450 inhibition. Conditions: 2B6, Human Liver Microsome. It is filed as in vitro ADME. The procedure: as §3, §4, §5, §6, §7, §8, §9, §10, §11
(Microsomes from liver hold many membrane-bound enzymes, among them those of drug oxidation.)

Another assay concerns the target T3, CYP2C9 (Homo sapiens, UniProt P11712).
T3 construct: 158 µl of Human Liver Microsome working stock solution; from tissue; host or cells: human liver microsomes
The assay can be described thus: Cytochrome P450 inhibition. It is filed as in vitro ADME. Conditions: 2C9, Human Liver Microsome. The protocol:
as §3, §4, §5, §6, §7, §8, §9, §10, §11

A further assay deals with T4, CYP2D6 (Homo sapiens, UniProt P10635).
T4 construct: 158 µl of Human Liver Microsome working stock solution; from tissue; host or cells: human liver microsomes
The assay can be described thus: Cytochrome P450 inhibition. It is filed as in vitro ADME. Conditions: 2D6, Human Liver Microsome. The procedure:
as §3, §4, §5, §6, §7, §8, §9, §10, §11

The next assay addresses T5, CYP3A4 (Homo sapiens, UniProt P08684).
T5 construct: 158 µl of Human Liver Microsome working stock solution; from tissue; host or cells: human liver microsomes
The assay can be described thus: Cytochrome P450 inhibition. It counts as in vitro ADME. Conditions: 3A4, Human Liver Microsome. The protocol: as §3, §4, §5, §6, §7, §8, §9, §10, §11

Assay [1] in a line: Dose estimation by allometric relationship (PAD, HED). Conditions: mouse models. The text has this: Based on pharmacokinetic studies and efficacy in vivo, it is possible to estimate a dosage in humans by allometric relationship (USFDA. Guidance for Industry: Estimating the Maximum Safe Starting Dose in Adult Healthy Volunteer. Rockville, MD: US Food and Drug Administration; 2005). […] The human equivalent dose (HED) can be estimated according with the FDA guidelines by means of the following formula: HED = animal dose × (((animal weight)/(human weight)))^((1−0.67)) [formula]
Based on PAD in mouse models, the HED can be estimated as 1.8 mg/(Kg·day) considering a mouse average weight of 30 g and an adult human body weight of 60 Kg.

The structures appear in SMILES notation. pIC50: −log10 of the molar value.

T1 sequence (P05177 whole entry): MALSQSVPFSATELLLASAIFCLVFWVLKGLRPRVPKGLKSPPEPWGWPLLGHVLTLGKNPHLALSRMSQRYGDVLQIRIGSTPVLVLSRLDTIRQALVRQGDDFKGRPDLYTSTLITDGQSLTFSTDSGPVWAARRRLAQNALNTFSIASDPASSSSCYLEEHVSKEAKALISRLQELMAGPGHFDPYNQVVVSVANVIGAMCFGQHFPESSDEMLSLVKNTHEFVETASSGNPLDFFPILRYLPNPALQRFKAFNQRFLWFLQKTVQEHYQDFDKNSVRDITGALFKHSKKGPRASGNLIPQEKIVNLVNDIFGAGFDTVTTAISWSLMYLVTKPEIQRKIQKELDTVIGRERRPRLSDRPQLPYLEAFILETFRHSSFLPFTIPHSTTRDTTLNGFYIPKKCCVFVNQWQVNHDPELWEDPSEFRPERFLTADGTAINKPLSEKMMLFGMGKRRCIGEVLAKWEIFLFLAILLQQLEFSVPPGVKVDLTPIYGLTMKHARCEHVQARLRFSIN
T5 sequence (P08684 whole entry): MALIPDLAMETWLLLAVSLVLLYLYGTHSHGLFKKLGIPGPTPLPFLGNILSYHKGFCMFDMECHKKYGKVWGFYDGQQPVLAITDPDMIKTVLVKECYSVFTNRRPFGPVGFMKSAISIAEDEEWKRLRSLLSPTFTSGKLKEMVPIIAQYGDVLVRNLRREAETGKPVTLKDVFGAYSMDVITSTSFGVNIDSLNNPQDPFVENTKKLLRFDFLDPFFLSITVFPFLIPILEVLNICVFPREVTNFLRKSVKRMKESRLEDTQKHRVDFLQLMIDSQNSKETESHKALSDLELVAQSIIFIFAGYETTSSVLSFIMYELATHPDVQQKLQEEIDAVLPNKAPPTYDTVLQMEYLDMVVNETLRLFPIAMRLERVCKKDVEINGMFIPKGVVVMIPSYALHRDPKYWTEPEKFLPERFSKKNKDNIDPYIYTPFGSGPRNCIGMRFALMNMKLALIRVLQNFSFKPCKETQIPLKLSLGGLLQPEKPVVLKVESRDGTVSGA
T4 sequence (P10635 whole entry): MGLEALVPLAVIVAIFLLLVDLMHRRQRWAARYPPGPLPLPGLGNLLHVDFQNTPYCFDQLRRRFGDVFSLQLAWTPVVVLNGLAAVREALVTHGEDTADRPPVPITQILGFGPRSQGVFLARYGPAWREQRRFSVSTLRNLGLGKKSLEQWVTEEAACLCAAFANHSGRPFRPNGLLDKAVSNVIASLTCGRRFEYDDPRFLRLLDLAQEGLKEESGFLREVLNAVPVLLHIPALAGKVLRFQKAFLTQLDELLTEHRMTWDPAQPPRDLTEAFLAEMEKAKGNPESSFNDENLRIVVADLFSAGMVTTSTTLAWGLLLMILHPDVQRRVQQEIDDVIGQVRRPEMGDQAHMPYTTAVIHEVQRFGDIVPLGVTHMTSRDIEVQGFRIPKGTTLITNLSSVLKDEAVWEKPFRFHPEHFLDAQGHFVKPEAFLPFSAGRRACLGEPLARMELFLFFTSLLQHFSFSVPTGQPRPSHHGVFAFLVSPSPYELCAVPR
T3 sequence (P11712 whole entry): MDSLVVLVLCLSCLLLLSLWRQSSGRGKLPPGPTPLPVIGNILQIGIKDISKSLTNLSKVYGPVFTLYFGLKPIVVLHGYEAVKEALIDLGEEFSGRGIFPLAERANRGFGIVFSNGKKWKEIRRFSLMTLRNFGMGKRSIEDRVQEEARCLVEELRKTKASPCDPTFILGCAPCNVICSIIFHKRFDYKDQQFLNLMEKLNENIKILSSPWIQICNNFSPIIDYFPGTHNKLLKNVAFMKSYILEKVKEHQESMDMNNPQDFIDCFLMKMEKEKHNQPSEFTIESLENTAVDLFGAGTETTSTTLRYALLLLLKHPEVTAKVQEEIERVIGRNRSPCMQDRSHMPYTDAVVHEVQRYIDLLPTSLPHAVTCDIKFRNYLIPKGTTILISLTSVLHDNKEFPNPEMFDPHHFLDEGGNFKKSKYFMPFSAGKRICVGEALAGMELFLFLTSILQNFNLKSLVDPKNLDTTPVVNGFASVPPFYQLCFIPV
T2 sequence (P20813 whole entry): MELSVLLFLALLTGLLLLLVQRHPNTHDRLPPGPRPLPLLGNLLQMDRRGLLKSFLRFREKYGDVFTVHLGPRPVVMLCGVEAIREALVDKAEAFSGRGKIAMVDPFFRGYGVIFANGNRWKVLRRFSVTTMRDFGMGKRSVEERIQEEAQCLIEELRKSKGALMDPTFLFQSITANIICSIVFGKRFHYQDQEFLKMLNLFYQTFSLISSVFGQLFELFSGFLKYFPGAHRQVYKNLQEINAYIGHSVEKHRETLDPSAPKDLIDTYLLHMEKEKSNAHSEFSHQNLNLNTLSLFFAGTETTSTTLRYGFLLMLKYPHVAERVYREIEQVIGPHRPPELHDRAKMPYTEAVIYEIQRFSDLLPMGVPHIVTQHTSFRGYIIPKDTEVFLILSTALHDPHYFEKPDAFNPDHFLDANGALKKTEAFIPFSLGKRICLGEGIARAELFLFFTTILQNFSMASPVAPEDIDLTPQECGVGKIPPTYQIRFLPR

Consider `CCCCc1cn(-c2ccc(-c3nnc(-c4ccccc4C(F)(F)F)o3)cc2)nn1` [Compound 5], for which the pIC50 (commonly −log10 of the IC50, conventionally taken in molar units) with A375 cell line is 6.03; in the assay with A549 Red-FLuc it was 5.22; in the assay with CALU1 it was 6.43; in the assay with DU145 cell line, 5.43; in the assay on HUH7 cell line it was 5.48; with PANC-1 cell line, 6.14. The pIC50 is 5.41 in the assay on U87; less than 4.52 at CYP1A2; less than 4.52 against CYP2B6; less than 4.52 on CYP2C9; less than 4.52 at CYP2D6; less than 4.52 on CYP3A4. In addition, the “pharmacologically active dose (PAD)” value in assay [1] is 22.5 mg·kg-1·day-1.
